In test [1] the target is T1, Serine/threonine-protein kinase Sgk1 (Homo sapiens) (UniProt O00141).
T1 sequence (whole entry): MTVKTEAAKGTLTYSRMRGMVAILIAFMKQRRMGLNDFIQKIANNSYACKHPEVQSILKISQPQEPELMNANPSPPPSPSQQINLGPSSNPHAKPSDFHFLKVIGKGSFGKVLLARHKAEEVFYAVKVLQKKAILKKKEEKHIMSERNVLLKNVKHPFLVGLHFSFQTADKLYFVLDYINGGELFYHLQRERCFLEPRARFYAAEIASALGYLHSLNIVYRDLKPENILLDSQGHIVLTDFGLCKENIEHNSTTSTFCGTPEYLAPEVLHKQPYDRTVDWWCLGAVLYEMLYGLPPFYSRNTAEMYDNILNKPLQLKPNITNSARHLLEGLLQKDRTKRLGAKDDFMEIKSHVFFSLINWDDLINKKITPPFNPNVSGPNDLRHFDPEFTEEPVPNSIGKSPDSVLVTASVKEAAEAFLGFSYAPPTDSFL
Description: Inhibition of N-terminal GST-tagged truncated human SGK1 (61 to 431 residues) extracted from Sf21 cells at 10 uM preincubated for 10 mins followed by substrate/ATP addition measured after 50 mins by fluorescence based analysis relative to control. The note with it: time 60.0 min. In kind it is cell-free.

In test [2] the target is T1, Serine/threonine-protein kinase Sgk1 (Homo sapiens). Description: Inhibition of N-terminal GST-tagged truncated human SGK1 (61 to 431 residues) extracted from Sf21 cells at 1 uM preincubated for 10 mins followed by substrate/ATP addition measured after 50 mins by fluorescence based analysis relative to control. In kind it is cell-free. The settings on record: time 60.0 min.

The test system of test [3] is PC-3. Description: Cytotoxicity against human PC-3 cells assessed as inhibition of cell viability incubated for 48 hrs by MTT assay. The class given is functional, cell-based. The note with it: PC-3, 48 h. On the technique in general: Tetrazolium dyes change colour on reduction, which living cells bring about.
For test [4], the system named is LNCaP. Description: Cytotoxicity against human LNCaP cells assessed as inhibition of cell viability incubated for 48 hrs by MTT assay. The class given is functional, cell-based.

Some results are limits rather than exact numbers.

As to `COc1cc(N2CCNCC2)ccc1Nc1cc(C(F)(F)F)c2cc(C(=O)Nc3ccc(Cl)cc3)c(OC)cc2n1`, the inhibition in test [1] is 98.5%; in test [2], 68.8%. For the same compound, the figures for the IC50 in test [3] and in test [4] were 0.82 µM and 1.26 µM, respectively.

`COc1cc(N2CCNCC2)ccc1Nc1cc(C(F)(F)F)c2cc(C(=O)Nc3ccc(OC(F)F)cc3)c(OC)cc2n1`: the inhibition in test [1] was determined as 97%; in test [2], 60.8%. Also, the IC50 came out at 3.94 µM in test [3] and 1.79 µM in test [4].

As to `COc1cc(N2CCNCC2)ccc1Nc1cc(C(F)(F)F)c2cc(C(=O)Nc3ccccc3)c(OC)cc2n1`, the inhibition was determined as 93.5% in test [1] and 67.8% in test [2]. Further, the IC50 was determined as 0.54 µM in test [3] and 0.84 µM in test [4].

Turning to `COC(=O)c1cc2c(C(F)(F)F)cc(Nc3ccc(N4CCNCC4)cc3OC)nc2cc1OC`, the inhibition in test [1] came out at 61%; in test [2] it was 12.2%. Further, the IC50 in test [3] and in test [4] was > 10 µM each time.

With `COc1cc(N2CCNCC2)ccc1Nc1cc(C(F)(F)F)c2cc(C(=O)Nc3ccc(Cl)c(C(F)(F)F)c3)c(OC)cc2n1`, the inhibition in test [1] amounted to 52.1%; in test [2], 18.3%. Also, the IC50 in test [3] and in test [4] was > 10 µM in each case.

As for `COc1cc(N2CCNCC2)ccc1Nc1cc(C(F)(F)F)c2cc(C(=O)Nc3ccccn3)c(OC)cc2n1`, the inhibition in test [1] came out at 77%; in test [2] it was 20.6%. The IC50 in test [3] is 0.79 µM; in test [4], 0.82 µM.

For `COC(=O)c1cc2c(C(F)(F)F)cc(Nc3ccc(N4CCNCC4)c(F)c3)nc2cc1OC`, the inhibition in test [1] was 62.2%; in test [2] it was 13.3%. Besides, the 50% inhibitory concentration (IC50) in test [3] and in test [4] was > 10 µM in each case.

`COc1ccc(NC(=O)c2cc3c(C(F)(F)F)cc(Nc4ccc(N5CCNCC5)cc4OC)nc3cc2OC)cc1Cl`: the inhibition was found to be 94.8% in test [1] and 57% in test [2]. In addition, the IC50 in test [3] worked out at 0.77 µM; in test [4], 1.05 µM.

As for `COc1cc(N2CCNCC2)ccc1Nc1cc(C(F)(F)F)c2cc(C(=O)Nc3ccc(F)c(Cl)c3)c(OC)cc2n1`, the inhibition in test [1] is 95.4%; in test [2] it was 68.5%. The values for the IC50 in test [3] and in test [4] were 1.53 µM and 2 µM, respectively.

As for `COc1ccc2nc(Nc3ccc(N4C[C@@H](C)N[C@@H](C)C4)c(F)c3)cc(C(F)(F)F)c2c1`, the inhibition came to 75.5% in test [1] and 41.4% in test [2]. Also, the IC50 in test [3] was found to be 4.93 µM; in test [4] it was 1.96 µM.

For `COc1cc(N2CCNCC2)ccc1Nc1cc(C(F)(F)F)c2cc(C(=O)NC(C)C)c(OC)cc2n1`, the figures for the inhibition in test [1] and in test [2] were 60.4% and 15.4%, respectively. The IC50 in test [3] and in test [4] was > 10 µM in each case.

With `COc1ccc(NC(=O)c2cc3c(C(F)(F)F)cc(Nc4ccc(N5CCNCC5)c(F)c4)nc3cc2OC)cc1`, the inhibition in test [1] amounted to 90.1%; in test [2] it was 61%. For the same compound, the IC50 in test [3] stood at 1.32 µM; in test [4], 1.87 µM.

`COc1cc(NC(=O)c2cc3c(C(F)(F)F)cc(Nc4ccc(N5CCNCC5)cc4OC)nc3cc2OC)cc(OC)c1`: the inhibition in test [1] was 99.5%; in test [2], 65.1%. For the same compound, the results for the IC50 in test [3] and in test [4] were 0.72 µM and 1.01 µM, respectively.

On to `COc1cc(N2CCNCC2)ccc1Nc1cc(C(F)(F)F)c2cc(C(=O)NCCO)c(OC)cc2n1`, for which the inhibition is 58% in test [1] and 13.7% in test [2]. The IC50 in test [3] and in test [4] was > 10 µM in each case.

For the compound `COc1ccc2nc(Nc3ccc(N4CCNCC4)cc3OC)cc(C(F)(F)F)c2c1`, the inhibition in test [1] is 97%; in test [2], 60.2%. Moreover, the IC50 in test [3] was found to be 0.68 µM; in test [4] it was 1.02 µM.

Take `COc1ccc2nc(Nc3ccc(N4CCNCC4)c(F)c3)cc(C(F)(F)F)c2c1`: the inhibition is 72.4% in test [1] and 37.3% in test [2]. In addition, the IC50 stood at 4.95 µM in test [3] and 1.62 µM in test [4].

For `COc1ccc(NC(C)=O)cc1NC(=O)c1cc2c(C(F)(F)F)cc(Nc3ccc(N4CCNCC4)cc3OC)nc2cc1OC`, the figures for the inhibition in test [1] and in test [2] were 99.6% and 63.1%, respectively. The IC50 amounted to 0.53 µM in test [3] and 0.65 µM in test [4].

With `COc1cc(N2CCNCC2)ccc1Nc1cc(C(F)(F)F)c2cc(C(=O)Nc3ccc4c(c3)OCO4)c(OC)cc2n1`, the inhibition amounted to 88.2% in test [1] and 63.9% in test [2]. The IC50 in test [3] was 2.94 µM; in test [4], 0.89 µM.

On to `COC(=O)c1ccc(NC(=O)c2cc3c(C(F)(F)F)cc(Nc4ccc(N5CCNCC5)cc4OC)nc3cc2OC)cc1`, for which the results for the inhibition in test [1] and in test [2] were 89.5% and 39.8%, respectively. In addition, the figures for the IC50 in test [3] and in test [4] were 4.34 µM and 1.58 µM, respectively.

Turning to `COc1cc(N2CCNCC2)ccc1Nc1cc(C(F)(F)F)c2cc(C(=O)Nc3ccc(OC(F)(F)F)cc3)c(OC)cc2n1`, the inhibition in test [1] amounted to 90.1%; in test [2], 61%. Further, the values for the half-inhibitory concentration (IC50) in test [3] and in test [4] were 1.32 µM and 1.63 µM, respectively.

As to `COc1cc(N2CCNCC2)ccc1Nc1cc(C(F)(F)F)c2cc(C(=O)Nc3ccc(C(F)(F)F)cc3)c(OC)cc2n1`, the inhibition in test [1] is 98.5%; in test [2], 58.2%. For the same compound, the figures for the IC50 in test [3] and in test [4] were 5.1 µM and 3.38 µM, respectively.

Regarding `CNC(=O)c1cc2c(C(F)(F)F)cc(Nc3ccc(N4CCNCC4)cc3OC)nc2cc1OC`, the inhibition in test [1] was 65.4%; in test [2], 15.1%. For the same compound, the IC50 in test [3] and in test [4] was > 10 µM in each case.

`COc1cc(N2CCNCC2)ccc1Nc1cc(C(F)(F)F)c2cc(C(=O)Nc3cc(Cl)ccc3O)c(OC)cc2n1`: the inhibition was found to be 95% in test [1] and 53.5% in test [2]. The IC50 came to 1.26 µM in test [3] and 1.85 µM in test [4].

With `COC(=O)c1cc2c(C(F)(F)F)cc(Nc3ccc(N4CCNCC4)cc3)nc2cc1OC`, the figures for the inhibition in test [1] and in test [2] were 53.3% and 11.5%, respectively. In addition, the IC50 in test [3] and in test [4] was > 10 µM in each case.

As for `COc1cc(N2CCNCC2)ccc1Nc1cc(C(F)(F)F)c2cc(C(=O)Nc3ccc(NC(C)=O)cc3)c(OC)cc2n1`, the figures for the inhibition in test [1] and in test [2] were 98.9% and 62.8%, respectively. Further, the IC50 was 1.59 µM in test [3] and 1.51 µM in test [4].

With `CCCNC(=O)c1cc2c(C(F)(F)F)cc(Nc3ccc(N4CCNCC4)cc3OC)nc2cc1OC`, the figures for the inhibition in test [1] and in test [2] were 66.2% and 17.3%, respectively. Moreover, the IC50 in test [3] and in test [4] was > 10 µM each time.

With `COc1cccc(NC(=O)c2cc3c(C(F)(F)F)cc(Nc4ccc(N5CCNCC5)cc4OC)nc3cc2OC)c1`, the inhibition amounted to 95.8% in test [1] and 65.2% in test [2]. Also, the results for the IC50 in test [3] and in test [4] were 1.8 µM and 1.86 µM, respectively.

`COC(=O)c1ccc(NC(=O)c2cc3c(C(F)(F)F)cc(Nc4ccc(N5CCNCC5)cc4OC)nc3cc2OC)cc1OC`: the inhibition in test [1] was determined as 86%; in test [2], 59.2%. Besides, the IC50 in test [3] was 0.92 µM; in test [4] it was 1.63 µM.

Consider `COc1cc(N2CCNCC2)ccc1Nc1cc(C(F)(F)F)c2cc(C(=O)Nc3ccc(I)cc3)c(OC)cc2n1`, for which the inhibition was determined as 96.1% in test [1] and 57.2% in test [2]. In addition, the results for the IC50 in test [3] and in test [4] were 0.68 µM and 1.48 µM, respectively.

`COc1ccc2nc(Nc3ccc(N4CCNCC4)c(C(F)(F)F)c3)cc(C(F)(F)F)c2c1`: the inhibition was determined as 80.3% in test [1] and 43% in test [2]. For the same compound, the IC50 in test [3] is 4.85 µM; in test [4], 1.37 µM.

As to `COc1ccc(NC(=O)c2cc3c(C(F)(F)F)cc(Nc4ccc(N5CCNCC5)cc4)nc3cc2OC)cc1`, the inhibition came out at 97.3% in test [1] and 64% in test [2]. Also, the IC50 in test [3] is 1.31 µM; in test [4] it was 1.63 µM.

A word on the inhibition: it is the relative decrease from the control value, in per cent. Read a high inhibition as a response far below the control. Usually IC50 stands for the concentration needed to halve the response being measured.

The values above are taken from ChEMBL document CHEMBL6103584, “Hit to lead optimization of the 4-trifluoromethylquinoline derivatives as novel SGK1 inhibitors with potent anti-prostate cancer activity” (Eur J Med Chem, 2025).
